{
  "source": "paper PMC4726752",
  "about": "“Coenzyme Q Biosynthesis: Evidence for a Substrate Access Channel in the FAD-Dependent Monooxygenase Coq6” (PLoS Computational Biology, 2016)",
  "molecules": {"B1": {"name": "Coq6p-MBP fusion protein (enzyme, S. cerevisiae, UniProt P53318 18-479, looked up)", "chain": "ATAKSSAPKLTDVLIVGGGPAGLTLAASIKNSPQLKDLKTTLVDMVDLKDKLSDFYNSPPDYFTNRIVSVTPRSIHFLENNAGATLMHDRIQSYDGLYVTDGCSKATLDLARDSMLCMIEIINIQASLYNRISQYDSKKDSIDIIDNTKVVNIKHSDPNDPLSWPLVTLSNGEVYKTRLLVGADGFNSPTRRFSQIPSRGWMYNAYGVVASMKLEYPPFKLRGWQRFLPTGPIAHLPMPENNATLVWSSSERLSRLLLSLPPESFTALINAAFVLEDADMNYYYRTLEDGSMDTDKLIEDIKFRTEEIYATLKDESDIDEIYPPRVVSIIDKTRARFPLKLTHADRYCTDRVALVGDAAHTTHPLAGQGLNMGQTDVHGLVYALEKAMERGLDIGSSLSLEPFWAERYPSNNVLLGMADKLFKLYHTNFPPVVALRTFGLNLTNKIGPVKNMIIDTLGGNEK", "notes": "Coq6p, FAD-dependent monooxygenase of ubiquinone biosynthesis, S. cerevisiae, UniProt P53318; coq6 gene optimised for E. coli and cloned in pMAL-c2X between BamHI and EcoRI downstream of malE; Printed mass of the fusion is 96.3 kDa with an MBP tag of 45 kDa, which would fit the whole 479-residue Coq6p (my surmise); source: E. coli BL21 (DE3) co-transformed with pMALc2x-Coq6p and pGro7 …"}},
  "key": {"[1]": {"target": "T1, Coq6p-MBP (Coq6p) (Saccharomyces cerevisiae, UniProt P53318)", "T1 construct": "gene COQ6", "T1 sequence (P53318 whole entry)": "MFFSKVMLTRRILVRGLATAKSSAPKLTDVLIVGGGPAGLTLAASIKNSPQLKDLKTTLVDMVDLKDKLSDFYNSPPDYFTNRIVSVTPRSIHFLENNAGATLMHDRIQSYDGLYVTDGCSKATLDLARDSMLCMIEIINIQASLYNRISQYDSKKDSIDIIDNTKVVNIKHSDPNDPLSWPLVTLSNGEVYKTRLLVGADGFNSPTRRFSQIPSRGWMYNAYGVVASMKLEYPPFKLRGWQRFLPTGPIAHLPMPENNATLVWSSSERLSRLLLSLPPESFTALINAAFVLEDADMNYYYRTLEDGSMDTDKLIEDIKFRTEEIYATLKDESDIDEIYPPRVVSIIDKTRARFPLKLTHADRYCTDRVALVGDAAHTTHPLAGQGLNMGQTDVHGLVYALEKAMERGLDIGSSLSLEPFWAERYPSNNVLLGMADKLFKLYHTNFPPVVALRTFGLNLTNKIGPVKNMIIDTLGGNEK", "details": "co-purified cofactor; tetrameric Coq6p-MBP, purified in Tris-HCl pH 7.5"}, "[2]": {"target": "the molecule itself", "test": "SEC; gel filtration on Superdex 200 10/300 GL calibrated with standards of known molecular mass (Bio-Rad); purified Coq6p-MBP"}},
  "data": [
    {"molecule": "Cc1cc2nc3c(=O)[nH]c(=O)nc-3n(C[C@H](O)[C@H](O)[C@H](O)COP(=O)(O)OP(=O)(O)OC[C@H]3O[C@@H](n4cnc5c(N)ncnc54)[C@H](O)[C@@H]3O)c2cc1C", "note": "[FAD]", "values": [
      {"measurement": "FAD occupancy per monomer", "setting": "[1]", "result": "~ 85%"}
    ]},
    {"molecule": "B1", "values": [
      {"measurement": "stoichiometry N", "setting": "[2]", "result": 4}
    ]}
  ]
}
